How the values were obtained:
[1] = biological target: Cathepsin D (Cat D) (Homo sapiens (Human), UniProt P07339); experiment: In vitro enzymatic Cathepsin D (Cat D) FRET assay; assay type: biochemical; settings: read-out: CatD IC50
[2] = biological target: BACE (Homo sapiens (Human), UniProt P56817); experiment: In vitro BACE cell-based assay (Aβ40 in conditioned medium, sandwich ELISA)
[3] = biological target: Beta Secretase enzyme (BACE) (Homo sapiens (Human), UniProt P56817); experiment: In vitro enzymatic BACE FRET assay; assay type: biochemical; settings: read-out: BACE1 Enzyme assay IC50
Beta Secretase enzyme (BACE), sequence (P56817 46-501): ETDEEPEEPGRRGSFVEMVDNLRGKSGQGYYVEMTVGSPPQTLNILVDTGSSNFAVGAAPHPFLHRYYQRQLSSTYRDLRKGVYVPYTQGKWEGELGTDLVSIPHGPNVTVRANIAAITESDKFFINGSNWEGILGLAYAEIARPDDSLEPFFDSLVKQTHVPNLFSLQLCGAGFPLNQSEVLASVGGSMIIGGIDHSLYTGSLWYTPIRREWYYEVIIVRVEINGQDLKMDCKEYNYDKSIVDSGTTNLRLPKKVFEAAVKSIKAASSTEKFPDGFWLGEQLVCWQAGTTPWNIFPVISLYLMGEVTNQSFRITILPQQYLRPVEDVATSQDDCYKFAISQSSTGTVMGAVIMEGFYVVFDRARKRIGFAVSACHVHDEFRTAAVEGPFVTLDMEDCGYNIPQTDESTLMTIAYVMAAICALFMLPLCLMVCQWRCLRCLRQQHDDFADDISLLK

BACE, sequence (P56817 46-501, species assumed): as the sequence (P56817 46-501) above
Cathepsin D (Cat D), sequence (P07339 65-412, species assumed): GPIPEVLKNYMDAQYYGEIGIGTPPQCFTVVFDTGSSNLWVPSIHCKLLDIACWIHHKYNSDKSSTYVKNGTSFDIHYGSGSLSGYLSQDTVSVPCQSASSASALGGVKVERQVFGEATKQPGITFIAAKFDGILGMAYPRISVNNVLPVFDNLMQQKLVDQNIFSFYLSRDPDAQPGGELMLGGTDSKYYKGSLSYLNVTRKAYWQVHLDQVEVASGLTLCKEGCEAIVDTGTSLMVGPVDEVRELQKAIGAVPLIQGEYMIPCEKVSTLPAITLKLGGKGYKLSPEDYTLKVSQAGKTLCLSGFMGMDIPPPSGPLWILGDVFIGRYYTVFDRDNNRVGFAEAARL

| IC50 [1] | IC50 [2] | IC50 [3] | SMILES |
| --- | --- | --- | --- |
| 1630 µM | 2.11 µM | 1.93 µM | NC1=N[C@@](c2cc(NC(=O)c3cc(Cl)ccn3)ccc2F)(C(F)F)[C@H]2C[C@H]2O1 [Example 287, N-(3-((1R,5S,6R)-3-amino-5-(difluoromethyl)-2-oxa-4-azabicyclo[4.1.0]hept-3-en-5-yl)-4-fluorophenyl)-4-chloropicolinamide] |
| 373 µM | 0.103 µM | 0.0613 µM | Cc1nc(C(=O)Nc2ccc(F)c([C@@]3(C(F)F)N=C(N)O[C@@H]4C[C@@H]43)c2)co1 [Example 166, N-(3-((1R,5S,6R)-3-amino-5-(difluoromethyl)-2-oxa-4-azabicyclo[4.1.0]hept-3-en-5-yl)-4-fluorophenyl)-2-methyloxazole-4-carboxamide] |
| 51.1 µM | 0.0033 µM | 0.0027 µM | C#CCOc1cnc(C(=O)Nc2ccc(Cl)c([C@@]3(C(F)F)N=C(N)O[C@@H]4C[C@@H]43)c2)cn1 [Example 221, N-(3-((1R,5S,6R)-3-amino-5-(difluoromethyl)-2-oxa-4-azabicyclo[4.1.0]hept-3-en-5-yl)-4-chlorophenyl)-5-(prop-2-yn-1-yloxy)pyrazine-2-carboxamide] |
| 596 µM | 0.0982 µM | 430 µM | COc1cnc2c(Nc3ccc(F)c([C@@]4(CF)N=C(N)O[C@@H]5C[C@@H]54)c3)ncc(F)c2c1 [Example 344, (1R,5S,6R)-5-(2-fluoro-5-((5-fluoro-3-methoxy-1,7-naphthyridin-8-yl)amino)phenyl)-5-(fluoromethyl)-2-oxa-4-azabicyclo[4.1.0]hept-3-en-3-amine] |
| 421 µM | 0.0891 µM | 0.0467 µM | CC#Cc1ccc(C(=O)Nc2ccc(F)c([C@@]3(C(F)F)N=C(N)O[C@@H]4C[C@@H]43)c2)nc1 [Example 314, N-(3-((1R,5S,6R)-3-amino-5-(difluoromethyl)-2-oxa-4-azabicyclo[4.1.0]hept-3-en-5-yl)-4-fluorophenyl)-5-(prop-1-yn-1-yl)picolinamide] |
| 897 µM | 0.0199 µM | 0.055 µM | COc1cnc(C(=O)Nc2cc(F)c(Cl)c([C@@]3(CF)N=C(N)O[C@@H]4C[C@@H]43)c2)cn1 [Example 156, N-(3-((1R,5S,6R)-3-amino-5-(fluoromethyl)-2-oxa-4-azabicyclo[4.1.0]hept-3-en-5-yl)-4-chloro-5-fluorophenyl)-5-methoxypyrazine-2-carboxamide] |
| 52.9 µM | 1.15 µM | 2.1 µM | NC1=N[C@@](c2cc(NCC3(C(F)(F)F)CC3)ccc2F)(C(F)F)[C@H]2C[C@H]2O1 [Example 376, (1R,5S,6R)-5-(difluoromethyl)-5-(2-fluoro-5-(((1-(trifluoromethyl)cyclopropyl)methyl)amino)phenyl)-2-oxa-4-azabicyclo[4.1.0]hept-3-en-3-amine] |
| 331 µM | 2.18 µM | 6.66 µM | NC1=N[C@@](c2cc(NC(=O)COc3ccccc3)ccc2F)(C(F)F)[C@H]2C[C@H]2O1 [Example 256, N-(3-((1R,5S,6R)-3-amino-5-(difluoromethyl)-2-oxa-4-azabicyclo[4.1.0]hept-3-en-5-yl)-4-fluorophenyl)-2-phenoxyacetamide] |
| 822 µM | 0.179 µM | 0.158 µM | COc1cnc(C(=O)Nc2ccc(F)c([C@]3(C(F)F)N=C(N)O[C@H]4C[C@H]43)c2)c(C)n1 (racemic) [Example 58, N-(3-([1(R,S),5(S,R),6(R,S)]-3-amino-5-(difluoromethyl)-2-oxa-4-azabicyclo[4.1.0]hept-3-en-5-yl)-4-fluorophenyl)-5-methoxy-3-methylpyrazine-2-carboxamide] |
| 2750 µM | > 15.6 µM | > 40 µM | COc1cnc2c(Nc3ccc(F)c([C@@]4(CF)N=C(N)O[C@@H]5C[C@@H]54)c3F)nccc2n1 [Example 355, (1R,5S,6R)-5-(2,6-difluoro-3-((2-methoxypyrido[3,4-b]pyrazin-5-yl)amino)phenyl)-5-(fluoromethyl)-2-oxa-4-azabicyclo[4.1.0]hept-3-en-3-amine] |
| 445 µM | 0.56 µM | 0.0867 µM | NC1=N[C@@](c2cc(NC(=O)c3cnc(OCc4cncs4)cn3)ccc2F)(C(F)F)[C@H]2C[C@H]2O1 [Example 170, N-(3-((1R,5S,6R)-3-amino-5-(difluoromethyl)-2-oxa-4-azabicyclo[4.1.0]hept-3-en-5-yl)-4-fluorophenyl)-5-(thiazol-5-ylmethoxy)pyrazine-2-carboxamide] |
| 270 µM | > 15.6 µM | > 40 µM | C[C@H](C(=O)Nc1ccc(F)c([C@@]2(C(F)F)N=C(N)O[C@@H]3C[C@@H]32)c1)c1ccc(Cl)cc1 (mixture of isomers) [Example 252, N-(3-((1R,5S,6R)-3-amino-5-(difluoromethyl)-2-oxa-4-azabicyclo[4.1.0]hept-3-en-5-yl)-4-fluorophenyl)-2-(4-chlorophenyl) propanamide] |
| 188 µM | 0.564 µM | 1.41 µM | NC1=N[C@@](c2cc(NCC3CC3)ccc2F)(C(F)F)[C@H]2C[C@H]2O1 [Example 379, (1R,5S,6R)-5-(5-((cyclopropylmethyl)amino)-2-fluorophenyl)-5-(difluoromethyl)-2-oxa-4-azabicyclo[4.1.0]hept-3-en-3-amine] |
| 404 µM | 0.0476 µM | 0.128 µM | COc1cnc(C(=O)Nc2cc(F)c(Cl)c([C@]3(CF)N=C(N)O[C@H]4C[C@H]43)c2)cn1 (racemic) [Example 152, N-(3-([1(S,R),5(R,S),6(S,R)]-3-amino-5-(fluoromethyl)-2-oxa-4-azabicyclo[4.1.0]hept-3-en-5-yl)-4-chloro-5-fluorophenyl)-5-methoxypyrazine-2-carboxamide compound with N-(3-((1S,5R,6S)-3-amino-5-(fluoromethyl)-2-oxa-4-azabicyclo[4.1.0]hept-3-en-5-yl)-4-chloro-5-fluorophenyl)-5-methoxypyrazine-2-carboxamide (1:1)] |
| 486 µM | 4.34 µM | 25.5 µM | COCCC(=O)Nc1ccc(F)c([C@@]2(C(F)F)N=C(N)O[C@@H]3C[C@@H]32)c1 [Example 247, N-(3-((1R,5S,6R)-3-amino-5-(difluoromethyl)-2-oxa-4-azabicyclo[4.1.0]hept-3-en-5-yl)-4-fluorophenyl)-3-methoxypropanamide] |
| 1230 µM | > 15.6 µM | 40.5 µM | Cn1cc(C(=O)Nc2ccc(F)c([C@@]3(C(F)F)N=C(N)O[C@@H]4C[C@@H]43)c2)ccc1=O [Example 248, N-(3-((1R,5S,6R)-3-amino-5-(difluoromethyl)-2-oxa-4-azabicyclo[4.1.0]hept-3-en-5-yl)-4-fluorophenyl)-1-methyl-6-oxo-1,6-dihydropyridine-3-carboxamide] |
| 251 µM | 0.0656 µM | 0.0291 µM | NC1=N[C@](CF)(c2cc(Nc3nccc4cc(Cl)cnc34)ccc2Cl)[C@H]2C[C@H]2O1 [Example 359, (1R,5S,6R)-5-(2-chloro-5-((3-chloro-1,7-naphthyridin-8-yl)amino)phenyl)-5-(fluoromethyl)-2-oxa-4-azabicyclo[4.1.0]hept-3-en-3-amine] |
| 402 µM | 0.0089 µM | 0.0944 µM | C[C@]1(c2cc(NC(=O)c3ccc(Cl)cn3)cnc2F)N=C(N)O[C@@H]2C[C@@H]21 [Example 334, N-(5-((1R,5S,6R)-3-amino-5-methyl-2-oxa-4-azabicyclo[4.1.0]hept-3-en-5-yl)-6-fluoropyridin-3-yl)-5-chloropicolinamide] |
| 1070 µM | 0.289 µM | 0.134 µM | CC(C)c1cc(C#N)cnc1C(=O)Nc1ccc(F)c([C@@]2(C(F)F)N=C(N)O[C@@H]3C[C@@H]32)c1 [Example 394, N-(3-((1R,5S,6R)-3-amino-5-(difluoromethyl)-2-oxa-4-azabicyclo[4.1.0]hept-3-en-5-yl)-4-fluorophenyl)-5-cyano-3-isopropylpicolinamide] |
| 1630 µM | > 15.6 µM | > 40 µM | Cc1cc(C(F)(F)F)cnc1C(=O)Nc1cc(F)c(F)c([C@@]2(CF)N=C(N)O[C@@H]3C[C@@H]32)c1 (stereo in doubt) [Example 52] |
| 363 µM | 0.0394 µM | 0.0895 µM | COc1cnc(C(=O)Nc2ccc(Cl)c([C@@]3(C(F)F)N=C(N)O[C@@H]4C[C@@H]43)c2)cn1 [Example 226, N-(3-((1R,5S,6R)-3-amino-5-(difluoromethyl)-2-oxa-4-azabicyclo[4.1.0]hept-3-en-5-yl)-4-chlorophenyl)-5-methoxypyrazine-2-carboxamide] |
| > 400 µM | > 15.6 µM | > 40 µM | NC1=N[C@@](c2cc(NC(=O)CC3CCCCC3)ccc2F)(C(F)F)[C@H]2C[C@H]2O1 [Example 241, N-(3-((1R,5S,6R)-3-amino-5-(difluoromethyl)-2-oxa-4-azabicyclo[4.1.0]hept-3-en-5-yl)-4-fluorophenyl)-2-cyclohexylacetamide] |
| 494 µM | 0.0199 µM | 0.0256 µM | Cc1cc(NC(=O)c2ncc(Cl)cc2Cl)cc([C@@]2(C(F)F)N=C(N)O[C@@H]3C[C@@H]32)c1F [Example 135, N-(3-((1R,5S,6R)-3-amino-5-(difluoromethyl)-2-oxa-4-azabicyclo[4.1.0]hept-3-en-5-yl)-4-fluoro-5-methylphenyl)-3,5-dichloropicolinamide] |
| 188 µM | > 15.6 µM | 34.3 µM | NC1=N[C@@](c2cc(NC(=O)[C@@H]3CCOC3)ccc2F)(C(F)F)[C@H]2C[C@H]2O1 (mixture of isomers) [Example 253, (R,S)-N-(3-((1R,5S,6R)-3-amino-5-(difluoromethyl)-2-oxa-4-azabicyclo[4.1.0]hept-3-en-5-yl)-4-fluorophenyl) tetrahydrofuran-3-carboxamide] |

From patent US9085576B2 (AMGEN INC., priority 2013, dated 2015)
